“And” between values parts separate entries of the source, which are not always exact repeats. Identical values can stand only once. Like-named read-outs stand apart in the source and are kept apart here.
Assays:
[1] = molecular target: T1, γ-secretase cleavage of APP (Homo sapiens, UniProt P49768); assay: Aβ in conditioned media of APP expressing HEK293 cells transfected with NotchΔE, ELISA; assay type: cell-based; conditions: for IC50: HEK293, 8 hr treatment; for Aβ levels in cultured cells: high doses
T1 construct: endogenous in cells; host or cells: HEK293 stably expressing Swedish mutant human APP695, transiently transfected with NotchΔE
Procedure: Since many compounds could behave differently in vitro versus in culture cells, cpd E and DAPT were tested in cultured cells (Fig. 2). HEK293 cells stably expressing Swedish mutant APP were transiently transfected with NotchΔE, a truncated Notch construct that is readily cleaved by the γ-secretase to generate NICD for downstream signaling transduction. NotchΔE expressing cells were treated with increasing concentrations of DAPT or cpd E. Cell lysates were subjected to WB for measuring the generation of NICD (Fig. 2A), and conditioned media were collected for Aβ measurement by ELISA (Fig. 2B,C).
Figure 2 Generation of NICD and Aβ from NotchΔE and APP expressing cells. A. Twenty four hrs after the construct carrying NotchΔE was transfected into APP expressing HEK293 cells, cells were treated with DAPT or cpd E for 8 hr and lysed for WB with antibody 1744 to specifically detect the N-terminus of NICD. Bottom panel, the antibody against α-tubulin was applied to normalize the amounts of lysates used for WB. B. Levels of NICD determined by WB were quantified by densitometry (dotted line). Levels of Aβ generated from the γ-secretase cleavage of APP in the presence of DAPT were determined by ELISA. […] C. NICD (dotted line) and Aβ (solid line) production from cpd E-treated cells were compared. […] D. A luciferase reporter construct driven by HES1 promoter was transfected into HEK293 cells followed by treatment with cpd E or DAPT.
Sandwich ELISAs for Aβ were performed as described. The capture antibodies, 2G3 (to Aβ residues 33–40) and 4G8 (to Aβ residues 17–24), were used for Aβ40 and Aβ total species, respectively. The detecting antibodies were biotinylated 82E1 (to Aβ residues 1–16) for Aβ1–40/total or biotinylated 266 for Aβx-40 species. The use of mid-region and C-terminal capturing antibodies and N-terminal detecting antibody for chimeric "Notch-Aβ-like" peptide (Nβ*) has been documented. The combination of several capture/detecting antibodies are use to measure Aβ and Nβ* derived from different precursors. The capture antibody 2G3 and detecting antibody 82E1 were used for measuring Nβ* from APP-α-Notch expressing cells. Since the APP-α-NOTCH is the fusion protein with its juxtamembrane portion of the APP ectodomain (the α-secretase cleavage region) replaced by the corresponding sequence in Notch, the epitopes in APP sequence could still be recognized by 2G3 (C-terminus) and 82E1 (N-terminus). […]
Human embryonic kidney (HEK) 293 cells stably expressing Swedish mutant human APP695 were transfected with different cDNA constructs and maintained in 200 μg/ml G418 (Invitrogen, Carlsbad, CA). […] Conditioned media were collected for ELISA, and cell lysates were analyzed by Western blot as described. […]

Notch target gene her6 = assay: Whole mount in situ hybridization of Notch target gene her6 in treated zebrafish embryos; assay type: in vivo
From the text: To examine the effect of DAPT and cpd E on Notch signaling, embryos treated with different concentrations of DAPT or cpd E were stained by whole mount in situ hybridization using a her6 probe (Fig 5). The expression level of Notch downstream target gene her6 correlates to the levels of Notch signaling, i.e., a loss of her6 staining corresponds to an inhibition of γ-secretase mediated Notch signaling. We have focused on the specific effect of γ-secretase inhibitors on Notch signaling in brain region.
Figure 5 Expression levels of Notch target gene her6 are consistent with the curvature phenotype. Increasing concentrations of DAPT or cpd E were applied to de-chorionated zebrafish embryos from 24 hpf until 48 hpf, and in situ hybridization of compound-treated embryos was carried out at 48 hpf using the her6 probe. At least 10 to 20 embryos were examined for each experiment. Images were taken at the 64× magnification for stained embryos.
In situ hybridization of compound-treated embryos was carried out at 2 dpf according to standard protocols using the her6 probe. Single-stranded RNA probes against her6 were synthesized from a cDNA clone (provided by Dr. P Raymond, University of Michigan, Ann Arbor, MI) using T7 RNA polymerase after linearization by restriction digest. The probe was then labeled with digoxigenin-UTP (Roche, Basel, Switzerland). At least 10 to 20 embryos were examined for each experiment. Images were taken at 64× magnification for stained embryos.

Compound | IC50 ([1]; read-out: concentration inhibiting levels of Aβ to 50% in cultured cells) [nM] | Aβ levels in cultured cells [1] | her6 expression (Notch target gene her6; 0.5 μM, 24 hpf until 48 hpf) | her6 expression (Notch target gene her6; 5 μM, 24 hpf until 48 hpf) | her6 expression (Notch target gene her6; 50 μM, 24 hpf until 48 hpf) | IC50 ([1]; IC50 for Aβ generation (levels of Aβ reduced to 50%) in cultured cells) | her6 expression (Notch target gene her6; highest testing doses)
C[C@H](NC(=O)Cc1cc(F)cc(F)c1)C(=O)N[C@H](C(=O)OC(C)(C)C)c1ccccc1 [DAPT, N-[N-(3,5-Difluorophenacetyl-L-alanyl)]-S-phenylglycine t-Butyl Ester] | ~500 | efficiently reduced to almost undetectable levels | very similar staining pattern to the control embryos | staining of her6 started to appear | significantly reduced or disappeared in most areas | – | –
C[C@H](NC(=O)Cc1cc(F)cc(F)c1)C(=O)N[C@H]1N=C(c2ccccc2)c2ccccc2N(C)C1=O [cpd E, (S,S)-2-[2-(3,5-Difluorophenyl)-acetylamino]-N-(1-methyl-2-oxo-5-phenyl-2,3-dihydro-1H-benzo [e] [1,4]diazepin-3-yl)-propionamide] | – | efficiently reduced to almost undetectable levels | – | – | slightly reduced expression level of her6 gene | ~8 nM and 5 nM | reduction of her6 staining
